# Tested on: MV-4-11 cells
# Test: Gene expression microarray analysis (Affymetrix PrimeView) and GSEA
# Type: cell-based, human
# Set-up: RFU PODN (11730768_x_at) / Fold change /veh PODN (11730768_x_at) / RFU LINC00158 (11744669_a_at) / Fold change /veh LINC00158 (11744669_a_at) / RFU DUSP10 (11751237_a_at) / Fold change /veh DUSP10 (11751237_a_at) / RFU ID3 (11757404_x_at) / Fold change /veh ID3 (11757404_x_at) / RFU PLEKHG5 (11737974_s_at) / Fold change /veh PLEKHG5 (11737974_s_at) / RFU LRRC4B (11730491_at) / Fold change /veh LRRC4B (11730491_at) / RFU GIMAP4 (11747438_a_at) / Fold change /veh GIMAP4 (11747438_a_at) / RFU KRT8 (11758183_x_at) / Fold change /veh KRT8 (11758183_x_at) / RFU CNN1 (11734310_a_at) / Fold change /veh CNN1 (11734310_a_at) / RFU VPS37D (11726825_at) / Fold change /veh VPS37D (11726825_at) / RFU C10orf10 (11716522_x_at) / Fold change /veh C10orf10 (11716522_x_at) / RFU KIR2DL2 /// KIR2DL4 /// KIR2DL5A /// KIR2DL5B /// KIR2DS1 /// KIR2DS2 /// KIR2DS3 /// KIR2DS4 /// KIR3DL3 /// KIR3DL3 /// KIR3DS1 (11738374_at) / Fold change /veh KIR2DL2 /// KIR2DL4 /// KIR2DL5A /// KIR2DL5B /// KIR2DS1 /// KIR2DS2 /// KIR2DS3 /// KIR2DS4 /// KIR3DL3 /// KIR3DL3 /// KIR3DS1 (11738374_at) / RFU C1QL1 (11718748_at) / Fold change /veh C1QL1 (11718748_at) / RFU TMPRSS4 (11747572_a_at) / Fold change /veh TMPRSS4 (11747572_a_at) / RFU HAMP (11756126_x_at) / Fold change /veh HAMP (11756126_x_at) / RFU RNFT2 (11725882_a_at) / Fold change /veh RNFT2 (11725882_a_at) / RFU NR4A2 (11747474_a_at) / Fold change /veh NR4A2 (11747474_a_at) / RFU ABCC12 (11746883_a_at) / Fold change /veh ABCC12 (11746883_a_at) / RFU TMEM136 (11760407_x_at) / Fold change /veh TMEM136 (11760407_x_at) / RFU CLDN22 /// WWC2 (11732394_at) / Fold change /veh CLDN22 /// WWC2 (11732394_at) / RFU HLA-DPB1 (11760878_x_at) / Fold change /veh HLA-DPB1 (11760878_x_at) / RFU SPINT1 (11716480_a_at) / Fold change /veh SPINT1 (11716480_a_at) / RFU GAP43 (11754022_s_at) / Fold change /veh GAP43 (11754022_s_at) / RFU A4GNT (11735810_at) / Fold change /veh A4GNT (11735810_at) / RFU PRB3 (11715151_x_at) / Fold change /veh PRB3 (11715151_x_at) / RFU TUBB4B (11761932_at) / Fold change /veh TUBB4B (11761932_at) / RFU CAPN14 (11732068_a_at) / Fold change /veh CAPN14 (11732068_a_at) / RFU TMCC2 (11721928_a_at) / Fold change /veh TMCC2 (11721928_a_at) / RFU IRGQ (11745062_a_at) / Fold change /veh IRGQ (11745062_a_at) / RFU FAM174B (11720279_a_at) / Fold change /veh FAM174B (11720279_a_at) / RFU TMPRSS4 (11748680_a_at) / Fold change /veh TMPRSS4 (11748680_a_at) / RFU FAM212B (11763350_a_at) / Fold change /veh FAM212B (11763350_a_at) / RFU PLEKHG5 (11743358_a_at) / Fold change /veh PLEKHG5 (11743358_a_at) / RFU ZSCAN30 (11745921_a_at) / Fold change /veh ZSCAN30 (11745921_a_at) / RFU CMKLR1 (11741424_a_at) / Fold change /veh CMKLR1 (11741424_a_at) / RFU LOC101060620 /// MAPK8IP1 (11723275_at) / Fold change /veh LOC101060620 /// MAPK8IP1 (11723275_at) / RFU SPTSSB (11747773_x_at) / Fold change /veh SPTSSB (11747773_x_at) / RFU PRSS12 (11739890_at) / Fold change /veh PRSS12 (11739890_at) / RFU BIN1 (11741810_x_at) / Fold change /veh BIN1 (11741810_x_at) / RFU WNT11 (11732464_a_at) / Fold change /veh WNT11 (11732464_a_at) / RFU C10orf10 (11716521_a_at) / Fold change /veh C10orf10 (11716521_a_at) / RFU C5orf56 (11738089_at) / Fold change /veh C5orf56 (11738089_at) / RFU CYB561 (11721691_x_at) / Fold change /veh CYB561 (11721691_x_at) / RFU ANKRD19P (11752326_a_at) / Fold change /veh ANKRD19P (11752326_a_at) / RFU OR2T12 /// OR2T33 /// OR2T8 (11738714_s_at) / Fold change /veh OR2T12 /// OR2T33 /// OR2T8 (11738714_s_at) / RFU VCAN (11748164_a_at) / Fold change /veh VCAN (11748164_a_at) / RFU JSRP1 (11732532_at) / Fold change /veh JSRP1 (11732532_at) / RFU KRTAP10-11 (11738290_x_at) / Fold change /veh KRTAP10-11 (11738290_x_at) / RFU MYO3A (11730013_a_at) / Fold change /veh MYO3A (11730013_a_at) / RFU EBF3 (11725865_a_at) / Fold change /veh EBF3 (11725865_a_at) / RFU CAMK2N1 (11719241_x_at) / Fold change /veh CAMK2N1 (11719241_x_at) / RFU C5orf56 (11738088_a_at) / Fold change /veh C5orf56 (11738088_a_at) / RFU OLFML3 (11715873_a_at) / Fold change /veh OLFML3 (11715873_a_at) / RFU LOC100653217 /// NTM (11731650_a_at) / Fold change /veh LOC100653217 /// NTM (11731650_a_at) / RFU MAPK11 (11762145_a_at) / Fold change /veh MAPK11 (11762145_a_at) / RFU FIZ1 (11724087_x_at) / Fold change /veh FIZ1 (11724087_x_at) / RFU OASL (11726364_x_at) / Fold change /veh OASL (11726364_x_at) / RFU SOX15 (11748057_x_at) / Fold change /veh SOX15 (11748057_x_at) / RFU CD79A (11719716_a_at) / Fold change /veh CD79A (11719716_a_at) / RFU HIST1H1D (11736915_at) / Fold change /veh HIST1H1D (11736915_at) / RFU CASKIN2 (11723855_a_at) / Fold change /veh CASKIN2 (11723855_a_at) / RFU LOC730098 (11760151_x_at) / Fold change /veh LOC730098 (11760151_x_at) / RFU OR4N2 (11742367_at) / Fold change /veh OR4N2 (11742367_at) / RFU PRRT2 (11749266_a_at) / Fold change /veh PRRT2 (11749266_a_at) / RFU SNX32 (11753110_a_at) / Fold change /veh SNX32 (11753110_a_at) / RFU CDHR5 (11726645_a_at) / Fold change /veh CDHR5 (11726645_a_at) / RFU RCAN1 (11760418_a_at) / Fold change /veh RCAN1 (11760418_a_at) / RFU FAM167A (11723789_a_at) / Fold change /veh FAM167A (11723789_a_at) / RFU FAM26E (11764081_at) / Fold change /veh FAM26E (11764081_at) / RFU ISYNA1 (11749810_s_at) / Fold change /veh ISYNA1 (11749810_s_at) / RFU ACY1 (11761880_at) / Fold change /veh ACY1 (11761880_at) / RFU 11764098_at / Fold change /veh 11764098_at / RFU SAMD14 (11745864_x_at) / Fold change /veh SAMD14 (11745864_x_at) / RFU NPB (11741838_a_at) / Fold change /veh NPB (11741838_a_at) / RFU TMPRSS6 (11731388_a_at) / Fold change /veh TMPRSS6 (11731388_a_at) / RFU KRTAP10-2 (11738614_at) / Fold change /veh KRTAP10-2 (11738614_at) / RFU ARHGAP8 /// PRR5-ARHGAP8 (11727945_x_at) / Fold change /veh ARHGAP8 /// PRR5-ARHGAP8 (11727945_x_at) / RFU KRTAP5-7 /// NADSYN1 (11734609_at) / Fold change /veh KRTAP5-7 /// NADSYN1 (11734609_at) / RFU RASL12 (11751679_a_at) / Fold change /veh RASL12 (11751679_a_at) / RFU CDKN2B (11736163_a_at) / Fold change /veh CDKN2B (11736163_a_at) / RFU PRF1 (11729649_at) / Fold change /veh PRF1 (11729649_at) / RFU, ZNF638 /// ZNF638-IT1 / Fold change vs veh, ZNF638 /// ZNF638-IT1 / RFU, PANK3 / Fold change vs veh, PANK3 / RFU, SH3YL1 / Fold change vs veh, SH3YL1 / RFU, ZEB2 / Fold change vs veh, ZEB2 / RFU, NRIP1 / Fold change vs veh, NRIP1 / RFU, PTTG1IP / Fold change vs veh, PTTG1IP / RFU, CAPN2 / Fold change vs veh, CAPN2 / RFU, MED14 / Fold change vs veh, MED14 / RFU, SNORA58 / Fold change vs veh, SNORA58 / RFU, C1orf63 / Fold change vs veh, C1orf63 / RFU, LRRFIP1 / Fold change vs veh, LRRFIP1 / RFU, NDUFAF7 / Fold change vs veh, NDUFAF7 / RFU, SLC12A2 / Fold change vs veh, SLC12A2 / RFU, IBTK / Fold change vs veh, IBTK / RFU, ESF1 / Fold change vs veh, ESF1 / Fold change vs veh, TMEM50B / RFU, TAOK1 / Fold change vs veh, TAOK1 / RFU, ACBD3 / Fold change vs veh, ACBD3 / RFU, TMA16 / Fold change vs veh, TMA16 / RFU, RWDD3 / Fold change vs veh, RWDD3 / RFU, BCAT1 / Fold change vs veh, BCAT1 / RFU, EDEM3 / Fold change vs veh, EDEM3 / RFU, TMEM33 / Fold change vs veh, TMEM33 / RFU, WDR75 / Fold change vs veh, WDR75 / RFU, AHCTF1 / Fold change vs veh, AHCTF1 / RFU, TFRC / Fold change vs veh, TFRC / RFU, ZDHHC17 / Fold change vs veh, ZDHHC17 / RFU, NOM1 / Fold change vs veh, NOM1 / RFU, ARL8B / Fold change vs veh, ARL8B / RFU, ZBTB11 / Fold change vs veh, ZBTB11 / RFU, TAMM41 / Fold change vs veh, TAMM41 / RFU, KIAA1704 /// LOC100996395 / Fold change vs veh, KIAA1704 /// LOC100996395 / RFU, ING1 / Fold change vs veh, ING1 / RFU, TRMT61B / Fold change vs veh, TRMT61B / RFU, FUBP3 / Fold change vs veh, FUBP3 / RFU, TP53 / Fold change vs veh, TP53 / RFU, TNKS2 / Fold change vs veh, TNKS2 / RFU, ZFP14 / Fold change vs veh, ZFP14 / RFU, ACTR2 / Fold change vs veh, ACTR2 / RFU, PPP3R1 / Fold change vs veh, PPP3R1 / RFU, PIK3R1 / Fold change vs veh, PIK3R1 / RFU, HNRNPA1 / Fold change vs veh, HNRNPA1 / RFU, RNF170 / Fold change vs veh, RNF170 / RFU, ZNF28 / Fold change vs veh, ZNF28 / RFU, RNGTT / Fold change vs veh, RNGTT / RFU, OGT / Fold change vs veh, OGT / RFU, BRD1 / Fold change vs veh, BRD1 / RFU, MARS / Fold change vs veh, MARS / RFU, ZNF655 / Fold change vs veh, ZNF655 / RFU, FAHD1 / Fold change vs veh, FAHD1 / RFU, BDP1 / Fold change vs veh, BDP1 / RFU, LRRCC1 / Fold change vs veh, LRRCC1 / RFU, ARID1A / Fold change vs veh, ARID1A / RFU, ZNF146 / Fold change vs veh, ZNF146 / RFU, ZNF330 / Fold change vs veh, ZNF330 / RFU, GPN3 / Fold change vs veh, GPN3 / RFU, C9orf123 / Fold change vs veh, C9orf123 / RFU, N4BP2L2 / Fold change vs veh, N4BP2L2 / RFU, ARFIP1 / Fold change vs veh, ARFIP1 / RFU, FAM179B / Fold change vs veh, FAM179B / RFU, BCL10 / Fold change vs veh, BCL10 / RFU, UHRF1BP1L / Fold change vs veh, UHRF1BP1L / RFU, BET1 / Fold change vs veh, BET1 / RFU, CNOT2 / Fold change vs veh, CNOT2 / RFU, ZNF268 / Fold change vs veh, ZNF268 / Fold change vs veh, ZNF507 / RFU, DGCR2 / Fold change vs veh, DGCR2 / RFU, WDSUB1 / Fold change vs veh, WDSUB1 / Fold change vs veh, HSP90B1 /// MIR3652 / RFU, ADSS / Fold change vs veh, ADSS / RFU, GK / Fold change vs veh, GK / RFU, ZNF148 / Fold change vs veh, ZNF148 / RFU, TAF9 / Fold change vs veh, TAF9 / RFU, SLC1A5 / Fold change vs veh, SLC1A5 / RFU, SLMO2 / Fold change vs veh, SLMO2 / RFU, ABCC4 / Fold change vs veh, ABCC4 / RFU, LOC101060439 /// RAP1B / Fold change vs veh, LOC101060439 /// RAP1B / RFU, RFX7 / Fold change vs veh, RFX7 / RFU, GTPBP10 / Fold change vs veh, GTPBP10 / RFU, CNEP1R1 / Fold change vs veh, CNEP1R1 / RFU, BIVM-ERCC5 /// ERCC5 / Fold change vs veh, BIVM-ERCC5 /// ERCC5 / RFU, ILF3 / Fold change vs veh, ILF3 / RFU 11762660_at / Fold change /veh 11762660_at / RFU VCAN (11757783_s_at) / Fold change /veh VCAN (11757783_s_at) / RFU DDX43 (11728927_at) / Fold change /veh DDX43 (11728927_at) / RFU KRT8 (11758188_x_at) / Fold change /veh KRT8 (11758188_x_at) / RFU NKD1 (11759106_at) / Fold change /veh NKD1 (11759106_at) / RFU SRD5A1 (11742802_a_at) / Fold change /veh SRD5A1 (11742802_a_at) / RFU TPSAB1 /// TPSB2 (11721975_s_at) / Fold change /veh TPSAB1 /// TPSB2 (11721975_s_at) / RFU GSTM3 (11746129_a_at) / Fold change /veh GSTM3 (11746129_a_at) / RFU IL23R (11737362_x_at) / Fold change /veh IL23R (11737362_x_at) / RFU TMEM51 (11727254_a_at) / Fold change /veh TMEM51 (11727254_a_at) / RFU PIWIL2 (11732686_x_at) / Fold change /veh PIWIL2 (11732686_x_at) / RFU ORM1 (11744905_x_at) / Fold change /veh ORM1 (11744905_x_at) / RFU CCDC152 (11743942_at) / Fold change /veh CCDC152 (11743942_at) / RFU ECM1 (11717891_a_at) / Fold change /veh ECM1 (11717891_a_at) / RFU IL23R (11748794_a_at) / Fold change /veh IL23R (11748794_a_at) / RFU TNFAIP8L3 (11732012_x_at) / Fold change /veh TNFAIP8L3 (11732012_x_at) / RFU MBOAT4 (11741988_at) / Fold change /veh MBOAT4 (11741988_at) / RFU 11764193_at / Fold change /veh 11764193_at / RFU TMEM53 (11763286_at) / Fold change /veh TMEM53 (11763286_at) / RFU MAGEB2 (11727129_at) / Fold change /veh MAGEB2 (11727129_at) / RFU TMEM200A (11744735_a_at) / Fold change /veh TMEM200A (11744735_a_at) / RFU CCDC152 (11751479_a_at) / Fold change /veh CCDC152 (11751479_a_at) / RFU FAM211A (11726209_a_at) / Fold change /veh FAM211A (11726209_a_at) / RFU RGS16 (11746705_a_at) / Fold change /veh RGS16 (11746705_a_at) / RFU VCAN (11755009_s_at) / Fold change /veh VCAN (11755009_s_at) / RFU RHOB (11743442_s_at) / Fold change /veh RHOB (11743442_s_at) / RFU RGS16 (11720943_a_at) / Fold change /veh RGS16 (11720943_a_at) / RFU RGS16 (11720944_at) / Fold change /veh RGS16 (11720944_at) / RFU, VPS4B / Fold change vs veh, VPS4B / RFU, CREB1 / Fold change vs veh, CREB1 / RFU, DNAJC13 / Fold change vs veh, DNAJC13 / RFU, GNAQ / Fold change vs veh, GNAQ / RFU, CDK5R1 / Fold change vs veh, CDK5R1 / RFU, ZRANB3 / Fold change vs veh, ZRANB3 / RFU, CUL4A / Fold change vs veh, CUL4A / RFU, CCNY / Fold change vs veh, CCNY / RFU, UFL1 / Fold change vs veh, UFL1 / RFU, COG3 / Fold change vs veh, COG3 / RFU, DIAPH2 / Fold change vs veh, DIAPH2 / RFU, SKA2 / Fold change vs veh, SKA2 / RFU, AFF3 / Fold change vs veh, AFF3 / RFU, LMF1 / Fold change vs veh, LMF1 / RFU, IPO11 / Fold change vs veh, IPO11 / RFU, DFFB / Fold change vs veh, DFFB / RFU, FOXP1 / Fold change vs veh, FOXP1 / RFU, CARD8 / Fold change vs veh, CARD8 / RFU, STRN3 / Fold change vs veh, STRN3 / RFU, ADK / Fold change vs veh, ADK / RFU, RASSF2 / Fold change vs veh, RASSF2 / RFU, WIPF1 / Fold change vs veh, WIPF1 / RFU, LARP1B / Fold change vs veh, LARP1B / RFU, RASA1 / Fold change vs veh, RASA1 / RFU, RB1 / Fold change vs veh, RB1 / RFU, PPFIA1 / Fold change vs veh, PPFIA1 / RFU, MAT2A / Fold change vs veh, MAT2A / RFU, CCT5 / Fold change vs veh, CCT5 / RFU, WDR92 / Fold change vs veh, WDR92 / RFU, CUX1 / Fold change vs veh, CUX1 / RFU, TTC7A / Fold change vs veh, TTC7A / RFU, TMEM135 / Fold change vs veh, TMEM135 / RFU, DEPTOR / Fold change vs veh, DEPTOR / RFU, CPM / Fold change vs veh, CPM / RFU, DNAJB6 / Fold change vs veh, DNAJB6 / RFU, CACNA2D3 / Fold change vs veh, CACNA2D3 / RFU, DTX4 / Fold change vs veh, DTX4 / RFU, TFCP2 / Fold change vs veh, TFCP2 / RFU, GMCL1 /// GMCL1P1 / Fold change vs veh, GMCL1 /// GMCL1P1 / RFU, AEBP2 / Fold change vs veh, AEBP2 / RFU, SNHG1 /// SNORD22 /// SNORD25 /// SNORD26 /// SNORD27 /// SNORD28 /// SNORD29 /// SNORD31 / Fold change vs veh, SNHG1 /// SNORD22 /// SNORD25 /// SNORD26 /// SNORD27 /// SNORD28 /// SNORD29 /// SNORD31 / Fold change (Aza/veh), C12orf56 (ProbeSet 11735607_a_at) / Fold change (ACY-1035/veh), C12orf56 (ProbeSet 11735607_a_at) / Fold change (Aza/veh), FGFR1OP (ProbeSet 11751329_s_at) / Fold change (ACY-1035/veh), FGFR1OP (ProbeSet 11751329_s_at) / Fold change (Aza/veh), VPS36 (ProbeSet 11739960_a_at) / Fold change (ACY-1035/veh), VPS36 (ProbeSet 11739960_a_at) / RFU SYPL1 (11715823_x_at) / Fold change /veh SYPL1 (11715823_x_at) / RFU IGFBP7 (11715501_s_at) / Fold change /veh IGFBP7 (11715501_s_at) / RFU REEP3 (11722064_at) / Fold change /veh REEP3 (11722064_at) / RFU IGLL1 (11728026_x_at) / Fold change /veh IGLL1 (11728026_x_at): dose or concentration left out as unconfirmed
# Conditions: ProbeSet 11725787_a_at; LIST B
smiles,measurement,value
Nc1ccc(-c2cccs2)cc1NC(=O)c1ccc2c(c1)cc(C1CC1)n2CCN1CCOCC1 [ACY-1035],"Fold change vs veh, TMA16",0.86

# — PMC5218480 (PLoS ONE, 2017)
